Experimental findings from ChEMBL document CHEMBL5370561, “Characterization of a Malabaricane-Type Triterpene Synthase from Astragalus membranaceus and Enzymatic Synthesis of Astramalabaricosides” (J Nat Prod, 2023) are described below.

By IC50 is commonly meant the concentration needed to halve the response being measured. By inhibition is commonly meant the relative decrease from the control value, in per cent.

SMILES strings stand for the structures.

The test system of one test is PC-9. Briefly: Cytotoxicity against human PC-9 cells assessed as reduction in cell growth measured after 72 hrs by MTT assay. It counts as functional, cell-based. The following applies: PC-9, 72 h. Background: Tetrazolium assays rely on reduction of a dye to a coloured formazan, in cell work by metabolically active cells.
Test [1] concerns HepG2. As to the kind of experiment: Cytotoxicity against human HepG2 cells assessed as reduction in cell growth measured after 72 hrs by MTT assay. The following applies: HepG2, 72 h. The format is functional, cell-based.
The next test has as its system BGC-823. As to the kind of experiment: Cytotoxicity against human BGC-823 cells assessed as reduction in cell growth measured after 72 hrs by MTT assay. It counts as functional, cell-based. Conditions: BGC-823, 72 h.
The subject of another test is HCT-116. Briefly: Cytotoxicity against human HCT-116 cells assessed as reduction in cell growth measured after 72 hrs by MTT assay. The format is functional, cell-based. Conditions: HCT-116, 72 h.
The next test concerns Influenza A virus. Briefly: Antiviral activity against Influenza A virus infected in HEK293T-GlUC cells assessed as inhibition of viral replication at 10 uM preincubated with cells for 2 hrs followed by viral infection and measured after 24 hrs relative to control. The format is functional. Conditions: HEK-293T, time 26 hrs.
The test system of the next test is RAW264.7. Briefly: Antiinflammatory activity in LPS-induced mouse RAW264.7 cells assessed as inhibition of TNF-alpha production at 10 uM incubated for 1 hr followed by LPS-stimulation and measured after 24 hrs by ELISA analysis relative to control. Conditions: time 25 hrs. It counts as functional.
A further test has as its system PANC-1. Briefly: Cytotoxicity against human PANC-1 cells assessed as reduction in cell growth measured after 72 hrs by MTT assay. It counts as functional, cell-based. Conditions: PANC-1, 72 h.
In test [2] the test system is HepG2. As to the kind of experiment: Hepatoprotective activity against APAP-induced cell injury in human HepG2 cells assessed as cell survival rate at 10 uM incubated for 24 hrs by MTT assay relative to control. It counts as functional.

As for `C=C(CC/C=C(\C)CCC=C(C)C)[C@H]1CC[C@H]2[C@@]1(C)CC[C@H]1C(C)(C)[C@@H](O)CC[C@]21C`, the IC50 in the test with PC-9, in the test with HepG2 [1], in the test with BGC-823, with HCT-116 and in the test on PANC-1 was greater than 50 µM each time. For the same molecule, the values for the inhibition at 10 µM with Influenza A virus and in the test on RAW264.7 were 45% and 40%, respectively.
Turning to `CC(C)=CCC/C(C)=C/CCC(C)(O)[C@H]1CC[C@H]2[C@@]1(C)CC[C@H]1C(C)(C)[C@@H](O)CC[C@]21C` (some centres undefined), the IC50 came out at 14 µM in the test on PC-9; 22 µM in the test on HepG2 [1]; 40 µM with BGC-823; 17 µM in the test with HCT-116; 15 µM in the test on PANC-1. Moreover, the inhibition at 10 µM was determined as 71% in the test on Influenza A virus and 34% with RAW264.7. Besides, the Activity in the test on HepG2 [2] came to 47%.
Consider `CC(C)=CCC/C(C)=C/CC[C@@](C)(O)[C@@H]1CC[C@H]2[C@@]1(C)CC[C@H]1C(C)(C)[C@@H](O[C@@H]3O[C@H](CO)[C@@H](O)[C@H](O)[C@H]3O[C@@H]3O[C@H](CO)[C@@H](O)[C@H](O)[C@H]3O)CC[C@]21C`, for which the IC50 was 36 µM with PC-9; greater than 50 µM in the test with HepG2 [1]; 26 µM in the test with BGC-823; 39 µM with HCT-116; 45 µM in the test with PANC-1. Besides, the inhibition at 10 µM with Influenza A virus was 65%; with RAW264.7, 30%. For the same molecule, in the test on HepG2 [2], the Activity was 48%.
`CC(C)=CCC[C@@](C)(O)[C@H]1CC[C@]2(C)[C@@H]1CC[C@@H]1[C@@]3(C)CC[C@H](O)C(C)(C)[C@@H]3CC[C@]12C`: the IC50 in the test on PC-9 is 49 µM; with HepG2 [1], 37 µM; in the test with BGC-823 it was 40 µM; in the test with HCT-116, 40 µM; in the test with PANC-1 it was 33 µM. The inhibition at 10 µM in the test on Influenza A virus was 57%; with RAW264.7 it was 43%. For the same molecule, the Activity in the test on HepG2 [2] is listed as 51%.
Turning to `CC(C)=CCC/C(C)=C/CC[C@@](C)(O)[C@@H]1CC[C@H]2[C@@]1(C)CC[C@H]1C(C)(C)[C@@H](O[C@@H]3O[C@H](CO)[C@@H](O)[C@H](O)[C@H]3O)CC[C@]21C`, the IC50 is 49 µM in the test with PC-9; greater than 50 µM in the test with HepG2 [1]; greater than 50 µM in the test on BGC-823; 28 µM in the test on HCT-116; 22 µM in the test with PANC-1. In addition, the inhibition at 10 µM in the test with Influenza A virus worked out at 47%; in the test with RAW264.7, 39%. Also, in the test on HepG2 [2], the Activity was determined as 55%.
As to `CC(C)=CCC/C(C)=C/CC[C@@](C)(O)[C@@H]1CC[C@H]2[C@@]1(C)CC[C@H]1C(C)(C)[C@@H](O)CC[C@]21C`, the IC50 in the test on PC-9 was 44 µM; in the test with HepG2 [1], 31 µM; in the test with BGC-823, 42 µM; with HCT-116 it was 41 µM; in the test with PANC-1, 29 µM. Also, the figures for the inhibition at 10 µM with Influenza A virus and in the test with RAW264.7 were 76% and 42%, respectively.
On to `CC(C)=CC/C=C(/C)[C@H]1CC[C@]2(C)[C@@H]1CC[C@@H]1[C@@]3(C)CC[C@H](O)C(C)(C)[C@@H]3CC[C@]12C`, for which the IC50 in the test on PC-9, with HepG2 [1], in the test on BGC-823, in the test on HCT-116 and with PANC-1 was greater than 50 µM throughout. The inhibition at 10 µM was 88% in the test with Influenza A virus and 50% in the test with RAW264.7. Moreover, the Activity in the test on HepG2 [2] was found to be 52%.
Turning to `C=C(CC/C=C(\C)CCC=C(C)C)[C@@H]1CC[C@H]2[C@@]1(C)CC[C@H]1C(C)(C)[C@@H](O)CC[C@]21C`, the 50% inhibitory concentration (IC50) in the test with PC-9, in the test with HepG2 [1], with BGC-823, with HCT-116 and with PANC-1 was greater than 50 µM in each case. Also, the inhibition at 10 µM with Influenza A virus turned out to be 62%; in the test on RAW264.7, 53%. The Activity in the test on HepG2 [2] stood at 58%.
With `C[C@@H]1C[C@H]2[C@@H]3CCC4=CC(=O)C=C[C@]4(C)[C@@]3(F)[C@@H](O)C[C@]2(C)[C@@]1(O)C(=O)CO` [DEXAMETHASONE], the inhibition at 10 µM in the test with RAW264.7 worked out at 55%.
As for `N[C@@H](CCC(=O)N[C@@H](CS)C(=O)NCC(=O)O)C(=O)O` [GLUTATHIONE], the Activity in the test on HepG2 [2] worked out at 60%.
As for `C=C(C)[C@@H]1CC[C@]2(C)CC[C@]3(C)[C@H](CC[C@@H]4[C@@]5(C)CC[C@H](O)C(C)(C)[C@@H]5CC[C@]43C)[C@@H]12` [LUPEOL], the IC50 in the test on PC-9, in the test with HepG2 [1], in the test with BGC-823, with HCT-116 and in the test with PANC-1 was greater than 50 µM in each case. The inhibition at 10 µM in the test with Influenza A virus was determined as 17%; with RAW264.7 it was 34%.
Consider `CC(=O)O[C@H]1C(=O)[C@@]2(C)[C@H]([C@H](OC(=O)c3ccccc3)[C@]3(O)C[C@H](OC(=O)[C@H](O)[C@@H](NC(=O)c4ccccc4)c4ccccc4)C(C)=C1C3(C)C)[C@]1(OC(C)=O)CO[C@@H]1C[C@@H]2O` [PACLITAXEL], for which the IC50 in the test on HepG2 [1] was found to be 0.064 µM; in the test on PANC-1 it was 0.004 µM.
With `NC(=O)c1ncn([C@@H]2O[C@H](CO)[C@@H](O)[C@H]2O)n1` [RIBAVIRIN], in the test with Influenza A virus, the inhibition at 10 µM stood at 97%.
